Experimental data taken from patent US10179160B2, “Therapeutic compositions for the treatment of dry eye disease” (SCHEPENS EYE RESEARCH INSTITUTE, priority 2010, dated 2019).

Experiments:
DED mice [1] = assay: Enumeration of CD11b+ cells in DED corneas (immunohistochemistry); assay type: in vivo
Excerpt: (§1) Eight to ten week-old female C57BLI6 mice (Charles River Laboratory, Wilmington, Mass.) were used in accordance with the standards in the ARVO Statement for the Use of Animals in Ophthalmic and Vision Research. The research protocol was approved by the Schepens Eye Research Institute Animal Care and Use Committee. Dry eye was induced in murine eyes using a Controlled Environment Chamber (CEC) which exposes the mice to high-flow desiccated air. […]
(§2) Freshly excised corneas were washed in PBS, fixed in acetone for 15 minutes and then double stained with CD31 and LYVE-1 as described previously. To analyze infiltration of CD11b^+/LYVE-1 cells, corneas from three mice from each group were taken and cells were counted in 5-6 areas in the periphery ([…] area from the limbus) of each cornea in a masked fashion, using epifluorescence microscope (model E800; Nikon, Melville, N.Y.) at 40× magnification. The mean number of cells was obtained by averaging the total number of cells in all the areas studied and the result was expressed as the number of positive cells per mm^2.
(§3) Anti-VEGF-C antibodies (VGX-100; Vegenics Limited, Australia) were administered intraperitonealy daily from day 1 to day 10 to DED mice. Mice were assessed clinically using corneal fluorescent staining. […]

DED mice [2] = assay: Real-time PCR of pro-lymphangiogenic growth factors and receptors in DE corneas; assay type: in vivo; conditions: VEGF-C blockade in DED mice
Excerpt: (§4) Eight to ten week-old female C57BLI6 mice (Charles River Laboratory, Wilmington, Mass.) were used in accordance with the standards in the ARVO Statement for the Use of Animals in Ophthalmic and Vision Research. The research protocol was approved by the Schepens Eye Research Institute Animal Care and Use Committee. Dry eye was induced in murine eyes using a Controlled Environment Chamber (CEC) which exposes the mice to high-flow desiccated air. To achieve maximum ocular surface dryness, the conditions in CEC were supplemented with topical application of 1% atropine sulfate (Falcon Pharma, Fort Worth, Tex.) twice for the first 48 hours and subcutaneous injections of 0.1 ml of 5 mg/ml of scopolamine hydrobromide (Sigma-Aldrich, St. Louis, Mo.) three times a day, for the entire duration of the experiment.
Five mice (10 eyes) were included in each group. Two corneas were pooled together to equal as one sample and stored at −80′C in Trizol (Invitrogen, Carlsbad, Calif.; catalog No. 15596026) until future use. Total RNA was isolated from these corneas using the RNeasy microkit (Qiagen, Valencia, Calif.; catalog No. 74004). Equal amounts of RNA were used to synthesize cDNA using SuperScript™ III Reverse Trancriptase (Invitrogen, Carlsbad, Calif.; catalog No. 18080) according to the manufacturer's recommendations. Real-Time PCR was performed using FAM-MGB dye labeled predesigned primers (Applied Biosystem, Foster City, Calif.) for GAPDH (assay ID.Mm999999 15_g1), VEGF-A (Mm00437304_m1), VEGF-C (Mrn00437313_m1), VEGF-D (Mm00438965_m1), VEGFR-2 (Mm00440099_m1), VEGFR-3 (Mm00433337_m1). 2.5 μl of cDNA was loaded in each well and assays were performed in duplicate. The GAPDH gene was used as the endogenous reference for each reaction. […]
(§5) Real time PCR was performed to quantify expression of different VEGF growth factors (VEGF-A, VEGF-C, VEGF-D) and their receptors (VEGFR-2, VEGFR-3) in the cornea at days 6, 10 and 14 (FIG. 8) and to determine the levels of proinflammatory cytokines.

DED mice [3] = assay: Corneal fluorescein staining / clinical signs in experimental dry eye murine model; assay type: in vivo; conditions: for clinical signs of DED / disease severity: anti-VEGF-C-treated vs untreated DED mice
Excerpt: as §4
(§6) Anti-VEGF-C antibodies (VGX-100; Vegenics Limited, Australia) were administered intraperitonealy daily from day 1 to day 10 to DED mice. Mice were assessed clinically using corneal fluorescent staining. Tissues from cornea, conjunctiva and draining lymph nodes were examined for cellular and molecular pathological changes.
Corneal lymphatics play an important role in mediating the corneal inflammation in dry eyes. Experiments: To validate this, inhibition of corneal neolymphangiogenesis was performed in a well characterized mouse model of DED described above. To see if inhibition of corneal neolymphangiogenesis could decrease ocular surface inflammation, anti-VEGF-C antibodies were administered i.p. daily from day −1 to day 10 to DED mice and assessed clinically using corneal fluorescein staining.
Methods (as described previously): Induction of Dry Eye Disease. Experimental Dry Eye Murine Model. Assessment of Corneal Surface: Corneal Fluorescein Staining. Immunohistochemistry: Monocyte/macrophage marker—CD11b; Pan-endothelial marker—CD31; Lymphatic endothelial marker—LYVE-1; Blood vessels: CD31^hi/LYVE-1; Lymph vessels: CD31^lo/LYVE-1^hi. Morphometry of Lymphangiogenesis: Automated image analysis program written using Mat lab. Lymphatic Area (LA)—total surface area of the lymphatic vessels when projected into the plane of the image. Lymphatic Caliber (LC)—measure of the diameters of the lymphatic vessels.
Anti-VEGF-C antibody and treatment regimen. Experimental design: Three groups: Normal, DE group treated with IP normal Saline (Untreated) and DE group treated with anti-VEGF-C antibody (VGX-100; a gift from Vegenics, Australia). Daily IP application of anti-VEGF-C antibody/Normal saline from day −1 to day 13. Dose: […] (20 mg/kg) in […] of Normal Saline.

DED mice [4] = assay: Corneal lymphangiogenesis (lymphatic growth) in DED mice; conditions: in vivo blockade of VEGF-C in DED mice
Excerpt: as §1, §2
Morphology of lymphatics was analyzed using an automated image analysis program written with Matlab (The Mathworks, Inc., Natick, Mass.). […] The resultant isolated lymphatic vessels were analyzed morphologically using two metrices, Lymphatic Area (LA) and Lymphatic Caliber (LC). […]

DED mice [5] = assay: Real-time PCR of IL-17 and IFN-γ in draining lymph nodes of DED mice; assay type: in vivo; conditions: anti-VEGF-C treated vs untreated DED mice
Excerpt: as §4
Five mice (10 eyes) were included in each group. […]
as §3, §5

DED mice [6] = assay: Real-time PCR of proinflammatory cytokines in conjunctiva of DED mice; assay type: in vivo
Excerpt: as §4
Five mice (10 eyes) were included in each group. Two corneas were pooled together to equal as one sample and stored at −80′C in Trizol (Invitrogen, Carlsbad, Calif.; catalog No. 15596026) until future use. Total RNA was isolated from these corneas using the RNeasy microkit (Qiagen, Valencia, Calif.; catalog No. 74004). Equal amounts of RNA were used to synthesize cDNA using SuperScript™ III Reverse Trancriptase (Invitrogen, Carlsbad, Calif.; catalog No. 18080) according to the manufacturer's recommendations. Real-Time PCR was performed using FAM-MGB dye labeled predesigned primers (Applied Biosystem, Foster City, Calif.) for GAPDH (assay ID.Mm999999 15_g1), VEGF-A (Mm00437304_m1), VEGF-C (Mrn00437313_m1), VEGF-D (Mm00438965_m1), VEGFR-2 (Mm00440099_m1), VEGFR-3 (Mm00433337_m1). 2.5 μl of cDNA was loaded in each well and assays were performed in duplicate. The GAPDH gene was used as the endogenous reference for each reaction. The results were normalized by the cycle threshold (CT) of GAPDH and the relative mRNA level in the normal mice was used as the normalized control.
as §6, §5

[7] = real-time PCR, anti-VEGF-C treated vs untreated DED mice

For “VGX-100: human anti-VEGF-C monoclonal antibody produced by hybridoma ATCC PTA-4095, heavy/light chains SEQ ID NO: 48/49; from Vegenics”, the “corneal infiltration of CD11b+ cells” value (DED mice [1]; VEGF-C blockade in DED mice) was “decrease”, the “decrease of infiltration of CD11b+ cells in the DED corneas” value (DED mice [1]; day 14) was 30% and the “expression of VEGF-C in DE corneas” value (DED mice [2]) was “decrease”. The “expression of VEGF-D in DE corneas” value (DED mice [2]) was “decrease”, the “expression of VEGFR-3 (R3) in DE corneas” value (DED mice [2]) was “decrease” and the corneal epitheliopathy (DED mice [3]; VEGF-C blockade in DED mice) was “decrease”. For the same substance, the “Corneal fluorescein staining (CFS) score” value (DED mice [3]; anti-VEGF-C Ab-treated vs untreated DED mice, days 5, 9 and 13, daily IP, 20 mg/kg) was “significantly decreased”, the “clinical signs of DED / disease severity” value (DED mice [3]; daily IP) was “ameliorates” and the “clinical signs of DED / disease severity” value (DED mice [3]; daily IP, listed as anti-VEGF-C) was “significant decrease”. For the same substance, the “corneal lymphangiogenesis / lymphatic growth” value (DED mice [4]) was “suppresses”, the “corneal lymphangiogenesis / lymphatic growth” value (DED mice [4]; listed as anti-VEGF-C) was “suppression” and the “IFN-γ (Th1 cells) in draining lymph nodes, induction of T-cell mediated autoimmune response” value (DED mice [5]) was “significantly decreased induction”. For the same substance, the “IL-17 (Th17 cells) in draining lymph nodes, induction of T-cell mediated autoimmune response” value (DED mice [5]) was “significantly decreased induction”, the “mRNA expression levels of proinflammatory cytokines in the conjunctiva” value (DED mice [6]; VEGF-C blockade in DED mice) was “decrease” and the “IL-1α expression in conjunctiva” value (DED mice [6]; [7]) was “significantly decreased expression”. For the same substance, the “IL-1β expression in conjunctiva” value (DED mice [6]; [7]) was “significantly decreased expression”, the “IL-6 expression in conjunctiva” value (DED mice [6]; [7]) was “significantly decreased expression” and the “IL-17 expression in conjunctiva” value (DED mice [6]; [7]) was “significantly decreased expression”.
